Converted amounts (≈) assume the structure as drawn.
Key:
BxPC-3 = assay: MTT cell viability assay; format: cell-based, human; conditions: BxPC-3, MTT, 24 h; mean ± SEM of three independent determinations
Description: (§1) HeLa, MIA PaCa-2, HPAC, and Bxpc-3 cells were maintained in Dulbecco’s modified Eagle medium) with 10% fetal bovine serum, penicillin (100 U/mL), and streptomycin ([…]) in a humid atmosphere at 37 °C with 5% CO2. The effect of the peptides on the survival of HeLa, MIA PaCa-2, HPAC, and Bxpc-3 cells was determined by 3-(4,5-dimethyl-2-thiazolyl)-2,5-diphenyl-2H-tetrazolium bromide (MTT) assay, as described in a previous study. Briefly, cells were seeded in 96-well plates at a density of 5000 per well. After overnight incubation, cells were incubated, in the absence, or presence of various concentrations of peptides for 24 h. Then, the formazan crystals formed by MTT were dissolved with dimethyl sulfoxide (DMSO) and the absorbance was determined at 492 nm with a microplate reader (GF-M3000; Gaomi Caihong Analytical Instruments Co., Shandong, China). The results were expressed as IC50 values, representing the concentration at which cell viability was reduced by 50%. The cytotoxicity assays were repeated in triplicate.

MIA PaCa-2 = assay: MTT cell viability assay; format: cell-based, human; conditions: MIA PaCa-2, MTT, 24 h; mean ± SEM of three independent determinations
Description: as §1

HeLa = assay: MTT cell viability assay; format: cell-based, human; conditions: 24 h, mean ± SEM of three independent determinations
Description: as §1

HPAC = assay: MTT cell viability assay; format: cell-based, human; conditions: 24 h, mean ± SEM of three independent determinations
Description: as §1

P. aeruginosa ATCC27853 = assay: Antimicrobial activity, microtiter dilution MIC; format: cell-based, Pseudomonas aeruginosa; conditions: G−; MH medium, 5 × 10^5 CFU/mL, 37 °C, 24 h, triplicate
Description: (§2) The antimicrobial activity of the peptides was determined by the standard microtiter dilution method and indicated as MIC (minimal inhibitory concentration) as described previously. Briefly, bacteria were cultured in Mueller–Hinton (MH) medium overnight at 37 °C, diluted to a final inoculum of 5 × 10^5 colony-forming units (CFU)/mL with MH and loaded into 96-well microtiter plates (90 μL/well) with serial dilution of peptides (10 μL/well), with a further incubation at 37 °C for 24 h. MIC was expressed as the lowest peptide concentration that inhibited the growth of bacteria. The antimicrobial assays were repeated in triplicate.

[1] = tested on: human red blood (hRBC) cells; assay: Hemolytic activity assay; format: cell-based; conditions: for MHC (minimal hemolytic concentration): 2% human RBC in PBS, 37 °C, 2 h, absorbance 578 nm, triplicate
Description: The […] of the peptides was measured by a hemolytic activity assay as described previously. Briefly, healthy human RBCs were collected using an anticoagulation tube with EDTAK2 and centrifuged at 1000 rpm for 5 min. The erythrocytes were washed three times, then diluted to a concentration of 2% in phosphate-buffered saline (PBS). The peptides were serially diluted in PBS and 70 μL of the peptide solutions and 2% RBC suspension were added simultaneously to each well of a 96-well plate (round bottom) for a further incubation at 37 °C for 2 h. Then, the plates were centrifuged for 10 min at 3000 rpm and the supernatant (90 μL) was transferred to a 96-well plate (flat bottom). The absorbance of the supernatant was measured on a microplate reader at 578 nm. Erythrocytes in PBS and distilled water were used as the negative (0%) and positive (100%) controls, respectively. The hemolytic activity was calculated as the percentage of experimental group over positive control (100%), after subtraction of negative control (0%). The hemolytic assays were repeated in triplicate.

[2] = Circular dichroism (CD) secondary structure; format: physicochemical; conditions: for [θ]222, benign / [θ]222, 50% TFE: CD, 75 μM peptide, 25 °C; for [θ]222, benign: KP buffer (100 mM KCl, 50 mM KH2PO4/K2HPO4, pH 7.4); for [θ]222, 50% TFE / α-Helix (%), 50% TFE (relative helicity): KP buffer with 50% TFE; for α-Helix (%), 50% TFE (relative helicity) / α-Helix (%), benign: relative to molar ellipticity of V13K in 50% TFE; for α-Helix (%), benign: KP buffer
Text: The influence of the amino acid substitutions on the peptide secondary structure were investigated using circular dichroism (CD) spectroscopy under benign conditions (KP buffer) and under conditions designed to mimic the hydrophobic environment of the membrane (KP buffer with 50% TFE). D-amino acid substitutions reduced the helicity of the peptide analogs relative to that of peptide V13K, in both KP buffer and KP buffer with 50% TFE. […] As shown in Table 2 and Figure S1, the values of the relative helicity of peptides with polar face substitutions are in the order of K14D (76.99%) > S11D/K14D (51.33%) > S11D/K14D/T15D (38.67%). Similarly, the relative helicity of the peptides with substitutions on the non-polar face follows the same trend: A12D (70.83%) > F9D/A12D (38.26%) > F9D/A12D/V16D (36.41%). Since the values of the relative helicity of the peptides with D-amino acid substitutions on the non-polar face were less than those peptide analogs with the same number of D-amino acid substitutions on the polar face, it is clear that the amino acid residues on the non-polar face may be more important for stabilizing the α-helical structure than residues on the polar face.
The secondary structures of the peptides were examined using a Jasco J-810 CD spectrometer (Jasco, Easton, MD, USA) at 25 °C as described previously. […] The mean residue molar ellipticities were calculated according to the equation [θ] = θ/10lCMn, in which, θ represents the ellipticity in millidegrees, l is the optical path length of the cuvette in centimeters, CM is the peptide concentration in mol/L, and n is the number of residues in the peptide. The mean residue molar ellipticities at 222 nm, [θ]222 (degree·cm^2·dmol^−1), were used to calculate the relative helical content of the peptides.

[3] = RP-HPLC retention time as relative hydrophobicity; format: physicochemical; conditions: 25 °C, used by the paper as measure of relative hydrophobicity
Description: The RP-HPLC retention time has been widely used to represent the relative hydrophobicity of peptides in many studies.The relative hydrophobicity of the peptides was determined by the RP-HPLC retention times at 25 °C. The change in hydrophobicity of the peptides caused by D-amino acid substitutions was mainly due to the disruption of the helical structure.

S. aureus ATCC25923 = assay: Antimicrobial activity, microtiter dilution MIC; format: cell-based, Staphylococcus aureus; conditions: G+; MH medium, 5 × 10^5 CFU/mL, 37 °C, 24 h, triplicate
Description: as §2

E. coli ATCC25922 = assay: Antimicrobial activity, microtiter dilution MIC; format: cell-based, Escherichia coli; conditions: G−; MH medium, 5 × 10^5 CFU/mL, 37 °C, 24 h, triplicate
Description: as §2

S. epidermidis ATCC12228 = assay: Antimicrobial activity, microtiter dilution MIC; format: cell-based, Staphylococcus epidermidis; conditions: G+; MH medium, 5 × 10^5 CFU/mL, 37 °C, 24 h, triplicate
Description: as §2

CC[C@H](C)[C@H](NC(=O)[C@H](C)NC(=O)[C@H](CCCCN)NC(=O)[C@H](CC(C)C)NC(=O)[C@H](C)NC(=O)[C@@H](NC(=O)[C@H](Cc1c[nH]cn1)NC(=O)[C@H](CC(C)C)NC(=O)[C@@H](NC(=O)[C@H](NC(=O)[C@@H](CCCCN)NC(=O)[C@H](CCCCN)NC(=O)[C@H](C)NC(=O)[C@@H](CO)NC(=O)[C@H](CCCCN)NC(=O)[C@H](Cc1ccccc1)NC(=O)[C@@H](NC(=O)[C@H](CCCCN)NC(=O)[C@H](CC(C)C)NC(=O)[C@H](Cc1ccccc1)NC(=O)[C@H](CO)NC(=O)[C@H](CCCCN)NC(=O)[C@H](Cc1c[nH]c2ccccc12)NC(=O)[C@H](CCCCN)NC(C)=O)[C@@H](C)O)[C@H](C)O)C(C)C)[C@@H](C)O)C(=O)N[C@@H](CO)C(=O)N[C@@H](CO)C(N)=O [S11D/K14D/T15D]
IC50 (BxPC-3): 45.5 ± 5.6 µM | IC50 (MIA PaCa-2): 56.8 ± 3.3 µM | IC50 (HeLa): 41.1 ± 0.5 µM | IC50 (HPAC): 54.2 ± 1.2 µM | MIC (P. aeruginosa ATCC27853): 125 µM (≈ 374 µg/mL) | MHC (minimal hemolytic concentration) [1]: 250 µM | [θ]222, benign [2]: −2845.85 degree·cm^2·dmol^−1 | [θ]222, 50% TFE [2]: −19,537.5 degree·cm^2·dmol^−1 | α-Helix (%), 50% TFE (relative helicity) [2]: 38.67% | α-Helix (%), benign [2]: 5.6% | tR (RP-HPLC retention time), relative hydrophobicity [3]: 39.59 min | MIC (S. aureus ATCC25923): 64 µM (≈ 191 µg/mL) | MIC (E. coli ATCC25922): 125 µM (≈ 374 µg/mL) | MIC (S. epidermidis ATCC12228): 16 µM (≈ 47.9 µg/mL)

CC[C@H](C)[C@H](NC(=O)[C@H](C)NC(=O)[C@H](CCCCN)NC(=O)[C@H](CC(C)C)NC(=O)[C@H](C)NC(=O)[C@@H](NC(=O)[C@H](Cc1c[nH]cn1)NC(=O)[C@H](CC(C)C)NC(=O)[C@H](NC(=O)[C@@H](NC(=O)[C@H](CCCCN)NC(=O)[C@H](CCCCN)NC(=O)[C@@H](C)NC(=O)[C@H](CO)NC(=O)[C@H](CCCCN)NC(=O)[C@@H](Cc1ccccc1)NC(=O)[C@@H](NC(=O)[C@H](CCCCN)NC(=O)[C@H](CC(C)C)NC(=O)[C@H](Cc1ccccc1)NC(=O)[C@H](CO)NC(=O)[C@H](CCCCN)NC(=O)[C@H](Cc1c[nH]c2ccccc12)NC(=O)[C@H](CCCCN)NC(C)=O)[C@@H](C)O)[C@@H](C)O)C(C)C)[C@@H](C)O)C(=O)N[C@@H](CO)C(=O)N[C@@H](CO)C(N)=O [F9D/A12D/V16D]
IC50 (BxPC-3): 125 ± 1.8 µM | IC50 (MIA PaCa-2): 57.9 ± 2.8 µM | IC50 (HeLa): 125 ± 3.4 µM | IC50 (HPAC): 95.6 ± 1.8 µM | MIC (P. aeruginosa ATCC27853): 125 µM (≈ 374 µg/mL) | MHC (minimal hemolytic concentration) [1]: >500 µM | Hemolytic activity compared with V13K ([1]; human red blood cells): much less hemolytic activity than V13K | [θ]222, benign [2]: −1907.83 degree·cm^2·dmol^−1 | [θ]222, 50% TFE [2]: −18,393.1 degree·cm^2·dmol^−1 | α-Helix (%), 50% TFE (relative helicity) [2]: 36.41% | α-Helix (%), benign [2]: 3.8% | tR (RP-HPLC retention time), relative hydrophobicity [3]: 39.06 min | MIC (S. aureus ATCC25923): 125 µM (≈ 374 µg/mL) | MIC (E. coli ATCC25922): 125 µM (≈ 374 µg/mL) | MIC (S. epidermidis ATCC12228): 125 µM (≈ 374 µg/mL)

CC[C@H](C)[C@H](NC(=O)[C@H](C)NC(=O)[C@H](CCCCN)NC(=O)[C@H](CC(C)C)NC(=O)[C@H](C)NC(=O)[C@@H](NC(=O)[C@H](Cc1c[nH]cn1)NC(=O)[C@H](CC(C)C)NC(=O)[C@@H](NC(=O)[C@@H](NC(=O)[C@@H](CCCCN)NC(=O)[C@H](CCCCN)NC(=O)[C@H](C)NC(=O)[C@@H](CO)NC(=O)[C@H](CCCCN)NC(=O)[C@H](Cc1ccccc1)NC(=O)[C@@H](NC(=O)[C@H](CCCCN)NC(=O)[C@H](CC(C)C)NC(=O)[C@H](Cc1ccccc1)NC(=O)[C@H](CO)NC(=O)[C@H](CCCCN)NC(=O)[C@H](Cc1c[nH]c2ccccc12)NC(=O)[C@H](CCCCN)NC(C)=O)[C@@H](C)O)[C@@H](C)O)C(C)C)[C@@H](C)O)C(=O)N[C@@H](CO)C(=O)N[C@@H](CO)C(N)=O [S11D/K14D]
IC50 (BxPC-3): 22.4 ± 2.3 µM | IC50 (MIA PaCa-2): 41.3 ± 2.6 µM | IC50 (HeLa): 30.6 ± 0.5 µM | IC50 (HPAC): 25.5 ± 0.5 µM | MIC (P. aeruginosa ATCC27853): 32 µM (≈ 95.7 µg/mL) | MHC (minimal hemolytic concentration) [1]: 125 µM | [θ]222, benign [2]: −3524.85 degree·cm^2·dmol^−1 | [θ]222, 50% TFE [2]: −25,931.3 degree·cm^2·dmol^−1 | α-Helix (%), 50% TFE (relative helicity) [2]: 51.33% | α-Helix (%), benign [2]: 7.0% | tR (RP-HPLC retention time), relative hydrophobicity [3]: 40.77 min | MIC (S. aureus ATCC25923): 64 µM (≈ 191 µg/mL) | MIC (E. coli ATCC25922): 64 µM (≈ 191 µg/mL) | MIC (S. epidermidis ATCC12228): 16 µM (≈ 47.9 µg/mL)

— article PMC5796017, “Enantiomeric Effect of D-Amino Acid Substitution on the Mechanism of Action of α-Helical Membrane-Active Peptides” (International Journal of Molecular Sciences, 2017)
